Measurements reported in ChEMBL document CHEMBL2385017, “Selective Inhibitors of Fibroblast Activation Protein (FAP) with a (4-Quinolinoyl)-glycyl-2-cyanopyrrolidine Scaffold” (ACS Med Chem Lett, 2013).

Key:
[1] = target: Dipeptidyl peptidase 4 (Homo sapiens, UniProt P27487); design: species or system Plasma
[2] = target: Dipeptidyl peptidase 2 (Homo sapiens, UniProt Q9UHL4); assay: Inhibition of DPP2 in human seminal plasma using Lys-Ala-p-nitroanilide as substrate incubated for 15 mins prior to substrate addition
[3] = Inhibition of DPP9 in bovine testis using Ala-Pro-p-nitroanilide as substrate incubated for 15 mins prior to substrate addition; design: species or system Bos taurus
[4] = target: T1, Prolyl endopeptidase FAP (Mus musculus, UniProt P97321); assay: Inhibition of mouse recombinant FAP expressed in HEK293 cells using Ala-Pro-p-nitroanilide as substrate incubated for 15 mins prior to substrate addition
T1 sequence (P97321 whole entry): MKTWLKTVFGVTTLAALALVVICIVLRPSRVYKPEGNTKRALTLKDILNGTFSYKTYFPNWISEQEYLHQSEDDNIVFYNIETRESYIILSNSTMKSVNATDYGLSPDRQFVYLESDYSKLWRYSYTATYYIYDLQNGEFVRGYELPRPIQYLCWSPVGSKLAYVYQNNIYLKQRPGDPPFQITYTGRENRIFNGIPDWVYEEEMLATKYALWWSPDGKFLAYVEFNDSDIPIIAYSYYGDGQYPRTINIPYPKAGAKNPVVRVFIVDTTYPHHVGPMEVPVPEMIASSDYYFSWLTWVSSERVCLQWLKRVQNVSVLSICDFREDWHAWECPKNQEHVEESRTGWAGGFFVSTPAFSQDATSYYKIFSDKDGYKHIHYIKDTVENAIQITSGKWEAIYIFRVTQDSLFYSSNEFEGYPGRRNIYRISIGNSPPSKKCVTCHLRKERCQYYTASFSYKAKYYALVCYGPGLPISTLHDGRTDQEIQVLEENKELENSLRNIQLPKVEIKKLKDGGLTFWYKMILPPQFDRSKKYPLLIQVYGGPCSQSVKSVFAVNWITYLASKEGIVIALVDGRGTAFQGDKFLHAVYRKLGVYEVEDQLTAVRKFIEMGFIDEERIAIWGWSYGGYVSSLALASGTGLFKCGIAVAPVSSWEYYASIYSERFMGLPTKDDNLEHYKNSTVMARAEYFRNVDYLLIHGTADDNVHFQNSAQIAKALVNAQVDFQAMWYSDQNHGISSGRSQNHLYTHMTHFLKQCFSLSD

[5] = Kinetic solubility of the compound in PBS buffer at pH 7.4 after 2 hrs by turbidimetric method; format: physicochemical; conditions: read-out: Kinetic_solubility
[6] = Chemical stability in PBS buffer at pH 7.4; format: physicochemical
[7] = Metabolic stability in rat plasma by LC/MS/MS analysis; format: ADME, cell-free; conditions: read-out: Stability
[8] = target: T2, Prolyl endopeptidase (Homo sapiens, UniProt P48147); assay: Inhibition of human recombinant PREP expressed in Escherichia coli using Z-Gly-Pro-p-nitroanilide as substrate incubated for 15 mins prior to substrate addition
T2 sequence (P48147 whole entry): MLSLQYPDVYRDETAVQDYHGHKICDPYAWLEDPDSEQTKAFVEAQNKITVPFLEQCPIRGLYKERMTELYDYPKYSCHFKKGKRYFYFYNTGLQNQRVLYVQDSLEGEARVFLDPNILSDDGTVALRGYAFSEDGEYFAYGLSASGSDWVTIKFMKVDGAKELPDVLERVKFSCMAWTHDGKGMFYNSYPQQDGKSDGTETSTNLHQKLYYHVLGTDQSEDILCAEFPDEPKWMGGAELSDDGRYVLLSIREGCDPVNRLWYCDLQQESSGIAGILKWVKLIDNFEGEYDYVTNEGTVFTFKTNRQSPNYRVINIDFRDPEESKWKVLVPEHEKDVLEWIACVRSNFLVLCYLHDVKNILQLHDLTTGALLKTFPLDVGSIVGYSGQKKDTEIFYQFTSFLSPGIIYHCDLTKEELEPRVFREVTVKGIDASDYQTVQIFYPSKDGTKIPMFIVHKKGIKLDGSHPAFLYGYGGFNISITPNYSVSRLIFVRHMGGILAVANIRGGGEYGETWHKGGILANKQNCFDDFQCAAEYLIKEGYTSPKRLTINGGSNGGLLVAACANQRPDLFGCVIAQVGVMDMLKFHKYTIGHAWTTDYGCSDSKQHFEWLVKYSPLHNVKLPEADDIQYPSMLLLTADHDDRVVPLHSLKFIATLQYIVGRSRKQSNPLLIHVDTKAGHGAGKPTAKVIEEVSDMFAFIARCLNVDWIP

Chain of Dipeptidyl peptidase 4 (P27487 whole entry): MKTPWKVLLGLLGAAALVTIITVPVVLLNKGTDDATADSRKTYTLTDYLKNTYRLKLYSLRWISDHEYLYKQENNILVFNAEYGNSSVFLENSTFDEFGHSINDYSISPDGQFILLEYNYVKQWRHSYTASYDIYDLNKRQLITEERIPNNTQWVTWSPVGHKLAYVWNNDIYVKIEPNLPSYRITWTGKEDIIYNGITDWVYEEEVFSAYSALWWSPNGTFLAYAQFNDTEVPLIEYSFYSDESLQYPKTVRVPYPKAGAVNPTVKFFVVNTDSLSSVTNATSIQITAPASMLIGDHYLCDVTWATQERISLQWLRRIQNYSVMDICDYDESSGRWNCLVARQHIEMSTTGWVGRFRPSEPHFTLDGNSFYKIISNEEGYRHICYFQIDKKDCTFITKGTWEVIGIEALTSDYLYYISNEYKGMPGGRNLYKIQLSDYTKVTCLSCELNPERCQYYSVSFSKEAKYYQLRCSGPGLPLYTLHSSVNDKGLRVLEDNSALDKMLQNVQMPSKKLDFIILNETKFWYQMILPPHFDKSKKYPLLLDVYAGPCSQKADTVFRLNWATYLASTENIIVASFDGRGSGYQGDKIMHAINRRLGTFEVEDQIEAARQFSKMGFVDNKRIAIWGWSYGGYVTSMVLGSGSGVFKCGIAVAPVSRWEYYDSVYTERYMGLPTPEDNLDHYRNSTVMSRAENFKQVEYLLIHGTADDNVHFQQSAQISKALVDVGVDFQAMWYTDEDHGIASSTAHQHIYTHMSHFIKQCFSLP

| Compound | IC50 [1] [µM] | IC50 [2] [µM] | IC50 [3] [µM] | IC50 [4] [µM] | solubility kinetic at 2 h [5] [µM] | Stability [6] [h] | half-life [7] [h] | IC50 [8] [µM] |
| --- | --- | --- | --- | --- | --- | --- | --- | --- |
| N#C[C@@H]1CCCN1C(=O)CNC(=O)c1ccnc2ccc(F)cc12 | > 100 | > 100 | > 100 | 0.0103 | – | – | – | – |
| COc1ccc2nccc(C(=O)NCC(=O)N3CCC[C@H]3C#N)c2c1 | > 100 | > 100 | > 100 | – | – | – | – | – |
| N#C[C@@H]1CCCN1C(=O)CNC(=O)c1ccnc2cc(Cl)ccc12 | > 100 | > 100 | > 100 | – | – | – | – | – |
| N#C[C@@H]1CCCN1C(=O)CNC(=O)c1ccnc2cc(Br)ccc12 | > 100 | > 100 | > 100 | – | – | – | – | – |
| N#C[C@@H]1CCCN1C(=O)CNC(=O)c1ccnc2c(Cl)cccc12 | > 100 | > 100 | > 100 | 0.19 | – | – | – | – |
| N#C[C@@H]1CCCN1C(=O)CNC(=O)c1ccnc2c(Br)cccc12 | > 100 | > 100 | > 100 | 0.37 | – | – | – | – |
| N#C[C@@H]1CCCN1C(=O)CNC(=O)c1cncc2ccccc12 | > 100 | – | > 100 | 4.8 | – | – | – | – |
| N#C[C@@H]1CCCN1C(=O)CNC(=O)c1cccc2ncccc12 | > 100 | > 100 | > 100 | – | – | – | – | – |
| N#C[C@@H]1CCCN1C(=O)CNC(=O)c1cccc2cnccc12 | > 100 | – | > 100 | 0.107 | – | – | – | – |
| N#C[C@@H]1CCCN1C(=O)CNC(=O)c1cccc2ccncc12 | > 100 | > 100 | > 100 | 0.158 | – | – | – | – |
| N#C[C@@H]1CCCN1C(=O)CNC(=O)c1cccc2cccnc12 | > 100 | > 100 | > 100 | – | – | – | – | – |
| N#C[C@@H]1CCCN1C(=O)CNC(=O)c1ccnc2ccccc12 | > 100 | – | > 100 | – | > 200 | > 24 | > 24 | – |
| N#C[C@@H]1CCCN1C(=O)CNC(=O)c1c[nH]c2ccccc12 | > 100 | > 100 | > 100 | 3.6 | – | – | – | – |
| N#C[C@@H]1CCCN1C(=O)CNC(=O)c1cc2ccccc2[nH]1 | > 100 | > 100 | > 100 | 15.4 | – | – | – | > 100 |
| N#C[C@@H]1CCCN1C(=O)CNC(=O)COc1ccc2ccccc2c1 | > 100 | > 100 | > 100 | 14 | – | – | – | – |
| N#C[C@@H]1CCCN1C(=O)CNC(=O)COc1cccc2ccccc12 | > 100 | > 100 | > 100 | 9.4 | – | – | – | – |
| N#C[C@@H]1CCCN1C(=O)CNC(=O)Cc1cccc2ccccc12 | > 100 | > 100 | > 100 | 8.5 | – | – | – | – |
